From patent publication US11230535B2, “CFTR regulators and methods of use thereof” (THE REGENTS OF THE UNIVERSITY OF CALIFORNIA, priority 2015, dated 2022)
“Also recorded” adds a separate entry of the source.

Key:
mouse liver microsomes = assay: In vitro metabolic stability in mouse liver microsomes; assay type: in vitro ADME
Protocol: (§1) CFTRact-J027 (5 μM) was incubated for specified times at 37° C. with mouse liver microsomes (1 mg protein/ml; Sigma-Aldrich) in potassium phosphate buffer (100 mM) containing 1 mM NADPH, as described. The mixture was then chilled on ice, and 0.5 ml of ice-cold ethyl acetate was added. Samples were centrifuged for 15 min at 3000 rpm, the supernatant evaporated to dryness, and the residue was dissolved in 100 μL mobile phase (acetonitrile:water, 3:1) for LC/MS and assayed as described above.
as §1, with “In vitro metabolic stability. CFTRact-J027” for “CFTRact-J027”

cAMP = cAMP GloSensor luminescence assay in FRT cells; assay type: cell-based, rat
Protocol: Intracellular cAMP activity was measured using a GloSensor luminescence assay (Promega Corp., Madison, Wis., USA). FRT null cells were stably transfected with the pGloSensor cAMP plasmid and plated onto white 96-well microplates and grown to confluence. Cells were washed three times with PBS and incubated with 5 μM CFTRact-J027 for 10 min in the absence and presence of 100 nM forskolin. cAMP was assayed according to the manufacturer's instructions.
Intracellular cAMP activity was measured using a GloSensor luminescence assay (Promega Corp., Madison, Wis., USA). FRT cells stably transfected with the pGloSensor cAMP plasmid (Promega Corp.) were cultured in white 96-well microplates (Corning Costar) overnight. Cells were then washed three times with PBS and incubated with 5 μM test compound for 10 min in the absence and presence of 100 nM forskolin.
cAMP assay. Intracellular cAMP activity was measured using a GloSensor luminescence assay (Promega Corp., Madison, Wis., USA). FRT null cells were stably transfected with the pGloSensor cAMP plasmid and plated onto white 96-well microplates and grown to confluence. […]
cAMP and cytotoxicity assays. Intracellular cAMP activity was measured using a GloSensor luminescence assay (Promega Corp., Madison, Wis., USA). […]

mice = assay: In vivo whole-gut transit time; parameters: species or system mouse
Protocol: (§2) Whole-gut transit time was determined using an orally administered marker (200 μL, 5% Evans Blue, 5% gum Arabic) and measuring the time of its appearance in stool. Mice were administered loperamide and CFTRact-J027 (10 mg/kg) or vehicle intraperitoneally at zero time. For ex vivo contractility measurements, mice were euthanized by avertin overdose (200 mg/kg, 2,2,2-tribromethanol, Sigma-Aldrich) and ileum and colon segments of ˜2 cm length were isolated and washed with Krebs-Henseleit buffer. The ends of the intestinal segments were tied, connected to a force transducer (Biopac Systems, Goleta, Calif., USA) and tissues were transferred to an organ chamber (Biopac Systems) containing Krebs-Henseleit buffer at 37° C. aerated with 95% O2, 5% CO2. Ileum and colon were stabilized for 60 min with resting tensions of 0.5 and 0.2 g respectively, and solutions were changed every 15 min. Effects of CFTRact-J027 on baseline and loperamide-suppressed isometric intestinal contractions were recorded.
(§3) In vivo intestinal transit and ex vivo intestinal contractility. Whole-gut transit time was determined using an orally administered marker (200 μL, 5% Evans Blue, 5% gum Arabic) and measuring the time of its appearance in stool. […] Effects of CFTRact-J027 on baseline and loperamide-suppressed isometric intestinal contractions were recorded.

closed mid-jejunal loops = assay: In vivo intestinal fluid secretion in closed mid-jejunal loops; parameters: species or system mouse; conditions: 90 min
Protocol: Mice (wildtype or CF) were given access to 5% dextrose water but not solid food for 24 h before experiments. Mice were anesthetized with isoflurane and body temperature was maintained during surgery at 36-38° C. using a heating pad. A small abdominal incision was made to expose the small intestine, and closed mid-jejunal loops (length 2-3 cm) were isolated by sutures. Loops were injected with 100 μL vehicle alone or 100 μg CFTRact-J027 in vehicle. The abdominal incision was closed with sutures, and mice were allowed to recover from anesthesia. Intestinal loops were removed at 90 min and loop length and weight were measured to quantify fluid secretion. Intestinal absorption was measured in CF mice (to prevent secretion) as described above, except that the loops were removed at 0 or 30 min. Absorption was calculated as 1−(loop weight at 0 min−loop weight at 30 min)/loop weight at 0 min.
In vivo intestinal secretion and absorption. Mice (wildtype or CF) were given access to 5% dextrose water but not solid food for 24 h before experiments. […] Intestinal loops were removed at 90 min and loop length and weight were measured to quantify fluid secretion. Intestinal absorption was measured in CF mice (to prevent secretion) as described above, except that the loops were removed at 0 or 30 min. Absorption was calculated as 1−(loop weight at 0 min−loop weight at 30 min)/loop weight at 0 min.

[1] = tested on: isolated mouse ileum and colon strips; assay: Ex vivo contractility of isolated ileum and colon strips; conditions: alone or with 10 μM loperamide
Protocol: as §2, §3

Nc1ccc([N+](=O)[O-])cc1-c1nc2ccccc2n(Cc2ccccc2)c1=O [CFTRact-J027, 3-(2-amino-5-nitrophenyl)-1-benzylquinoxalin-2(1H)-one]
elimination half-life in microsomes (mouse liver microsomes; 5 μM, mouse liver microsomes, NADPH): ~21 min | original compound remaining at 60 min (mouse liver microsomes; 60 min): 7% | hepatic microsomal metabolism, in words (mouse liver microsomes; mouse liver microsomes, NADPH): rapid hepatic metabolism; also recorded: rapidly metabolized | cellular cAMP, added together with forskolin (cAMP; 5 μM + 100 nM forskolin): does not further increase cAMP | cellular cAMP, compound alone (cAMP; 5 μM, 10 min): without causing elevation of cytoplasmic cAMP; also recorded: does not elevate cellular cAMP | whole-gut transit time (mice; 10 mg/kg ip, loperamide-treated wild-type mice): normalized | whole-gut transit time in cystic fibrosis mice (mice; CF mice): no effect | increase in loop weight/length ratio (closed mid-jejunal loops; 100 μg per loop, wild-type mice): 140% | loop fluid secretion in cystic fibrosis mice (closed mid-jejunal loops; CF mice): without effect | intestinal contraction [1]: no effect
